In US5441987A, “Antifungal agent” (Merck & Co., Inc., priority 1994, dated 1995):
In brackets after ≈: the same amount, converted by molar mass.

Experiments:
[1] = system: Aspergillus fumigatus (MF 4839); assay: broth microdilution MIC assay; settings: read-out: Minimum Inhibitory Concentration (MIC)
Experimental: (§1) In the microbroth dilution assay, microorganisms were selected by streaking a yeast culture on Sabouraud dextrose agar (SDA) incubating for 24-48 hours at 35°-37° C., thereafter selected 3 to 5 characteristic colonies and transferring to a fresh plate and incubating under similar conditions. From the regrowth, 3 to 5 colonies were selected and suspended in 10 milliliters of YM broth (Difco) and incubated for 4 hours at 35°-37° C. shaking at 225 rpm. The 4 hour broth cultures were adjusted optically to 86% transmission resulting in a concentration of 1-5 X 10^6 cfu/ml which was further diluted 1:100 in YNBD (yeast nitrogen base with 1% dextrose) to obtain a concentration of 1-5 X 10^4 cfu/ml for use as inocula.
(§2) The compounds in column 1 were then serially diluted two-fold to yield concentrations from 128 μg/ml to 0.6 μg/ml.
(§3) The plates containing the diluted compounds were then inoculated with 75 μl/well of the appropriate microorganism and incubated for 48 hours at 35°-37° C. with MIC (minimum inhibitory concentration) determinations carried out after 24 hours of incubation. Growth and sterility controls for each organism and sterility checks for the compounds also were carried out.

A. fumigatus (5668) = assay: broth microdilution MIC assay; settings: Aspergillus fumigatus, read-out: Minimum Inhibitory Concentration (MIC)
Experimental: as §1, §2, §3

A. fumigatus (5669) = assay: broth microdilution MIC assay; settings: Aspergillus fumigatus, read-out: Minimum Inhibitory Concentration (MIC)
Experimental: as §1, §2, §3

[2] = system: Candids albicans (MY 1028); assay: broth microdilution MIC/MFC assay; settings: Candida albicans; for MFC: read-out: Minimum Fungicidal Concentration (MFC)
Experimental: as §1, §2, §3
(§4) After recording MICs at 24 hours, the microtiter plates were shaken gently to resuspend the cells. A 1.5 μl sample was transferred from each well of the 96-well microtiter plate to a single reservoir inoculum plate containing SDA. The inoculated SDA and corresponding microtiter plates were incubated for 24 hours at 35°-37° C. For Cryptococus neoformans, SDA plates were inoculated at 48 hours after recording MICs and incubated 48 hours before reading the MFC. MFC is the lowest concentration of compound at which either no growth or growth of ≤4 colonies occur.

C. albicans (MY 1750) = assay: broth microdilution MIC/MFC assay; settings: Candida albicans; for MFC: read-out: Minimum Fungicidal Concentration (MFC)
Experimental: as §1, §2, §3, §4

[3] = system: C. guillermondii (MY 1019); assay: broth microdilution MIC/MFC assay; settings: Meyerozyma guilliermondii; for MIC: 24 h, read-out: Minimum Inhibitory Concentration (MIC); for MFC: read-out: Minimum Fungicidal Concentration (MFC)
Experimental: as §1, §2, §3, §4

[4] = system: C. parapsilosis (MY 1010); assay: broth microdilution MIC/MFC assay; settings: Lodderomyces parapsilosis; for MIC: 24 h, read-out: Minimum Inhibitory Concentration (MIC); for MFC: read-out: Minimum Fungicidal Concentration (MFC)
Experimental: as §1, §2, §3, §4

[5] = system: C. pseudotropicalis (MY 2099); assay: broth microdilution MIC/MFC assay; settings: Kluyveromyces marxianus; for MIC: 24 h, read-out: Minimum Inhibitory Concentration (MIC); for MFC: read-out: Minimum Fungicidal Concentration (MFC)
Experimental: as §1, §2, §3, §4

C. tropicalis (MY 1012) = assay: broth microdilution MIC/MFC assay; settings: Candida tropicalis; for MIC: 24 h, read-out: Minimum Inhibitory Concentration (MIC); for MFC: read-out: Minimum Fungicidal Concentration (MFC)
Experimental: as §1, §2, §3, §4

[6] = system: Cryptococcus neoformans (MY 1051); assay: broth microdilution MIC/MFC assay; settings: for MFC: 48 h, read-out: Minimum Fungicidal Concentration (MFC); for MIC: read-out: Minimum Inhibitory Concentration (MIC)
Experimental: as §1, §2, §3, §4

C. neoformans (MY 1146) = assay: broth microdilution MIC/MFC assay; settings: Cryptococcus neoformans; for MFC: 48 h, read-out: Minimum Fungicidal Concentration (MFC); for MIC: read-out: Minimum Inhibitory Concentration (MIC)
Experimental: as §1, §2, §3, §4

C. neoformans (MY 2061) = assay: broth microdilution MIC/MFC assay; settings: Cryptococcus neoformans; for MFC: 48 h, read-out: Minimum Fungicidal Concentration (MFC); for MIC: read-out: Minimum Inhibitory Concentration (MIC)
Experimental: as §1, §2, §3, §4

C. neoformans (MY 2062) = assay: broth microdilution MIC/MFC assay; settings: Cryptococcus neoformans; for MFC: 48 h, read-out: Minimum Fungicidal Concentration (MFC); for MIC: read-out: Minimum Inhibitory Concentration (MIC)
Experimental: as §1, §2, §3, §4

[7] = system: Saccharomyces cerevisiae (MY 1976); assay: broth microdilution MIC/MFC assay; settings: for MIC: 24 h, read-out: Minimum Inhibitory Concentration (MIC)
Experimental: as §1, §2, §3, §4

Phytophthora infestans = format: in vivo; settings: 50 ppm, tomato, evaluated after four days
Plasmopara viticola = assay: in vivo protectant assay, downy mildew on grape; settings: 50 ppm, evaluated after 12 days
Alternaria solani = assay: in vivo protectant assay, early blight on tomato; settings: 50 ppm, evaluated after four days
Botrytis cinerea = assay: in vivo protectant assay, grey mold on pepper; settings: 50 ppm, evaluated after four days
Puccinia recondita = assay: in vivo protectant assay, wheat leaf rust on wheat; settings: 50 ppm, evaluated after 10-14 days
filamentous fungi = assay: filter paper disc inhibition zone assay, filamentous fungi; format: cell-based; settings: 25 μl/disc, 28° C. or 37° C., 24 hours
Experimental: Compound I is also useful for inhibiting the growth of filamentous fungi. Such use may be illustrated in the following tests with Aspergillus fumigatus, Aspergillus niger, Aspergillus flavus, Fusarium oxysporum, Rhizomicor miehei, Ustilago zeae and the like. Inocula for filamentous fungi are prepared by scraping the surface of stock plates maintained on potato dextrose agar with a moistened sterile dacron swab. The spores and mycelia are then suspended in 10 milliliters of sterile potato dextrose broth and adjusted to 70 percent transmission at 660 nm. The samples to be tested for production of antifungal agent are applied to 6.2 mm. filter paper discs (25 microliter/disc) and air dried at 24° C. When the sample to be tested is crude broth, it may be centrifuged prior to application. The discs bearing the material to be tested are then applied employing sterile conditions to the seeded assay plates and the samples […] 25 percent sterile aqueous dimethylsulfoxide (25 μl/disc). The assay plates are then incubated at either 28° C. or 37° C. for 24 hours. Following incubation, the inhibition zones are measured. Growths are also noted as to appearance.

[8] = 24 h, read-out: Minimum Inhibitory Concentration (MIC)

Row | SMILES | MIC [1] [µg/mL] | MIC (A. fumigatus (5668)) [µg/mL] | MIC (A. fumigatus (5669)) [µg/mL] | MFC [2] [µg/mL] | MFC (C. albicans (MY 1750)) [µg/mL] | MIC [3] [µg/mL] | MFC [3] [µg/mL] | MIC [4] [µg/mL] | MFC [4] [µg/mL] | MIC [5] [µg/mL] | MFC [5] [µg/mL] | MIC (C. tropicalis (MY 1012)) [µg/mL] | MFC (C. tropicalis (MY 1012)) [µg/mL] | MFC [6] [µg/mL] | MIC [6] [µg/mL] | MFC (C. neoformans (MY 1146)) [µg/mL] | MIC (C. neoformans (MY 1146)) [µg/mL] | MFC (C. neoformans (MY 2061)) [µg/mL] | MIC (C. neoformans (MY 2061)) [µg/mL] | MFC (C. neoformans (MY 2062)) [µg/mL] | other results
1 | C[C@@H]1[C@H](O)[C@@H](C)/C=C/C=C/C=C/C=C/C=C/C=C/C=C/[C@H](O[C@@H]2O[C@H](C)[C@@H](O)[C@H](N)[C@@H]2O)C[C@@H]2O[C@](O)(C[C@@H](O)C[C@@H](O)[C@H](O)CC[C@@H](O)C[C@@H](O)CC(=O)O[C@H]1C)C[C@H](O)[C@H]2C(=O)O [Amphotericin B, reference compound] | 4 (≈ 4.33 µM) | 4 (≈ 4.33 µM) | 4 (≈ 4.33 µM) | 2 (≈ 2.16 µM) | 2 (≈ 2.16 µM) | 2 (≈ 2.16 µM) | 4 (≈ 4.33 µM) | 2 (≈ 2.16 µM) | 2 (≈ 2.16 µM) | 4 (≈ 4.33 µM) | 4 (≈ 4.33 µM) | 64 (≈ 69.3 µM) | 32 (≈ 34.6 µM) | 4 (≈ 4.33 µM) | 2 (≈ 2.16 µM) | 2 (≈ 2.16 µM) | 2 (≈ 2.16 µM) | 2 (≈ 2.16 µM) | 2 (≈ 2.16 µM) | 2 (≈ 2.16 µM) | MIC (C. neoformans (MY 2062)): 2 µg/mL (≈ 2.16 µM); MIC [7]: 1 µg/mL (≈ 1.08 µM)
2 | CCCCCCC(C)C1=C(O)C(=O)C2C(O)C(C)CC(O)C2C1(C)C(=O)CCO (centres unmarked) [Compound I] | 32 (≈ 77.9 µM) | 32 (≈ 77.9 µM) | 32 (≈ 77.9 µM) | 32 (≈ 77.9 µM) | 32 (≈ 77.9 µM) | 16 (≈ 39 µM) | 16 (≈ 39 µM) | 64 (≈ 156 µM) | 64 (≈ 156 µM) | 16 (≈ 39 µM) | 32 (≈ 77.9 µM) | 32 (≈ 77.9 µM) | 32 (≈ 77.9 µM) | 16 (≈ 39 µM) | 8 (≈ 19.5 µM) | 32 (≈ 77.9 µM) | 32 (≈ 77.9 µM) | 16 (≈ 39 µM) | 16 (≈ 39 µM) | 32 (≈ 77.9 µM) | control of Phytophthora infestans (Phytophthora infestans): up to 90%; control of Plasmopara viticola (Plasmopara viticola): ≤ 85%; control of Alternaria solania (Alternaria solani): Moderate control; control of Botrytis cinerea (Botrytis cinerea): Moderate control; control of Puccinia recondita (Puccinia recondita): Moderate control; growth inhibition of fungal organisms (inhibition zones) (filamentous fungi): effectively inhibit growth; MIC [2, 8]: 32 µg/mL (≈ 77.9 µM); MIC (C. albicans (MY 1750); [8]): 64 µg/mL (≈ 156 µM); MIC (C. neoformans (MY 2062)): 16 µg/mL (≈ 39 µM); MIC [7]: 16 µg/mL (≈ 39 µM); MFC ([7]; read-out: Minimum Fungicidal Concentration (MFC)): 16 µg/mL (≈ 39 µM)
